The source made the active and inactive calls. No cut-off for these calls is given here.
Assays:
Escherichia coli = experiment: Antibacterial activity against Escherichia coli ATCC CRM-11229 assessed as inhibition of bacterial growth at 25 to 100 uM incubated overnight by spotting assay; type: functional, organism-based; conditions: dose 25-100 µM
PBMC = experiment: Effect on cell viability in human PBMC assessed as increase in cell number by measuring rise in cell proliferation percentage at 12.5 uM measured after 12 hrs by lymphocyte proliferation assay (12 hrs incubated Rvb = 478.774%); type: toxicity, cell-based
[1] = Cytotoxicity against human MCF7 cells assessed as cell viability at 12.5 uM incubated for 24 hrs by MTT assay relative to control; type: toxicity, cell-based; conditions: read-out: Activity
Pseudomonas aeruginosa [2] = experiment: Antibacterial activity against Pseudomonas aeruginosa assessed as inhibition of bacterial growth incubated for 0.5 to 8.5 hrs by microtiter plate reader analysis; type: functional, organism-based; conditions: dose 1.25-40 µM, time 0.5-8.5 hrs
Pseudomonas aeruginosa [3] = experiment: Antibacterial activity against Pseudomonas aeruginosa assessed as induction of cellular damage at MIC concentration incubated for 30 mins by SYTO9/PI staining based fluorescence microscopic analysis; type: functional, organism-based
Staphylococcus aureus = experiment: Antibiofilm activity against methicillin-resistant Staphylococcus aureus in the presence of Na+; type: functional, organism-based
Rattus norvegicus = species on record: Rattus norvegicus; experiment: Induction of wound healing in surgically-induced Albino Wistar rat wound model assessed as reduction in inflammatory signs at 10 uM measured after 11 days by H&E staining based analysis; type: functional; conditions: time 11.0 day

Substance: H-FLPIIKWVKKFFWRWR-OH
- Activity (Escherichia coli): Active
- Activity (PBMC): 55.188%
- viability at 24 h, 12.5 µM [1]: 77%
- Activity (Pseudomonas aeruginosa [2]): Dose-Dependent Effect
- Activity (Pseudomonas aeruginosa [3]): Active
- Activity (Staphylococcus aureus): Active
- Activity (Rattus norvegicus): Active

Source: ChEMBL document CHEMBL5360649, “Potential Broad-Spectrum Antimicrobial, Wound Healing, and Disinfectant Cationic Peptide Crafted from Snake Venom” (J Med Chem, 2023)
